From PMC7673538 (PLoS Biology, 2020)
Where two headings read alike, the source gives them in different places.

Assays:
[1] = tested on: CV-B3; assay: microbe, parasite or virus in culture; type: cell-based, coxsackievirus B3; conditions: for EC50: Enterovirus B
[2] = tested on: EV-D68; assay: microbe, parasite or virus in culture; type: cell-based, enterovirus D68; conditions: for EC50: Enterovirus D
[3] = tested on: HRV-A2; assay: microbe, parasite or virus in culture; type: cell-based, human rhinovirus; conditions: for EC50: Human rhinovirus sp., HRVA2, HeLa R19, read-out: EC50 HRV-A2
[4] = tested on: HRV-B14; assay: microbe, parasite or virus in culture; type: cell-based, human rhinovirus; conditions: for EC50: Human rhinovirus sp.
[5] = tested on: representative EVs and RVs; type: cell-based
[6] = tested on: EV-A71; assay: microbe, parasite or virus in culture; type: cell-based, enterovirus A71; conditions: Enterovirus A
[7] = tested on: PV-1; assay: microbe, parasite or virus in culture; type: cell-based, poliovirus 1; conditions: Enterovirus C, HeLa R19, read-out: EC50 PV-1
[8] = tested on: CV-A24; assay: microbe, parasite or virus in culture; type: cell-based, coxsackievirus A24; conditions: Enterovirus C, CVA24, HeLa R19, read-out: EC50 CV-A24
[9] = tested on: CV-B3; assay: microbe, parasite or virus in culture; type: cell-based, coxsackievirus B3; conditions: for EC50: Enterovirus B; remark: listed apart in the source
[10] = tested on: CV-B3; assay: microbe, parasite or virus in culture; type: cell-based, coxsackievirus B3; conditions: Enterovirus B, CVB3, BGM
[11] = tested on: HeLa R19 cells
[12] = in vitro; conditions: human
[13] = in vitro; conditions: human; remark: listed apart in the source
[14] = in vitro; conditions: monkey
[15] = EVA71, HeLa R19, read-out: EC50 EV-A71
[16] = CVB3, HeLa R19, read-out: CV-B3 EC50 Average
[17] = CVB3, HeLa R19, read-out: CV-B3 Exp 1 EC50
[18] = CVB3, HeLa R19, read-out: CV-B3 Exp2 EC50
[19] = CVB3, HeLa R19, read-out: EC50 HelaR19 Average
[20] = CVB3, HeLa R19, read-out: Exp 1 EC50 HelaR19
[21] = CVB3, HeLa R19, read-out: Exp 2 EC50 HelaR19
[22] = EVD68, HeLa R19, read-out: EC50 EV-D68
[23] = EVD68, HeLa R19, read-out: EC50 Exp1
[24] = EVD68, HeLa R19, read-out: EC50 Exp2
[25] = HRVB14, HeLa R19, read-out: EC50 HRV-B14
[26] = CVB3, HAP1, read-out: Exp 1 EC50 Hap1
[27] = CVB3, HAP1, read-out: Exp 2 EC50 Hap1
[28] = CVB3, HAP1, read-out: EC50 Hap1 Average

Compound	EC50 [6, 15] [µM]	EC50 ([1]; CVB3, HeLa) [µM]	EC50 [1, 16] [µM]	EC50 [1, 17] [µM]	EC50 [1, 18] [µM]	EC50 [1, 19] [µM]	EC50 [1, 20] [µM]	EC50 [1, 21] [µM]	EC50 [7] [µM]	EC50 [8] [µM]	EC50 [2, 22] [µM]	EC50 [2, 23] [µM]	EC50 [2, 24] [µM]	EC50 [3] [µM]	EC50 [4, 25] [µM]	EC50 [9, 27] [µM]	CC50 ([12]; CC50 Average) [µM]	CC50 ([12]; CC50 HelaR19 Average) [µM]	CC50 ([12]; Exp 1 CC50) [µM]	CC50 ([12]; Exp 1 CC50 HelaR19) [µM]	other results
(S)-fluoxetine [reference compound]	–	–	–	–	–	–	–	–	–	–	–	–	–	–	–	–	–	–	–	–	antiviral activity against CV-B3 (in words) [1]: inhibited; cross-resistance of 19d-resistant CV-B3 virus pools (in words) [1]: cross-resistant; cross-resistance of 19d-resistant EV-D68 virus pools (in words) [2]: cross-resistance; inhibition of EV-D68 replication (in words) [2]: inhibited; inhibition of HRV-A2 replication (in words) [3]: inhibited; inhibition of HRV-B14 replication (in words) [4]: inhibited; inhibition of contemporary/clinical isolates of EV-A71, CV-A24v and EV-D68 (in words) [5]: inhibited contemporary strains of EV-D68 and some, but not all, contemporary EV-A71 strains
CC(C)c1ccc(CN(C(=O)c2ccco2)c2ccccc2)cc1 [Compound 19h, N-(4-Isopropylbenzyl)-N-phenylfuran-2-carboxamide]	1.89 ± 0.21	7.62 ± 0.93	7.03	7.95	6.11	7.65	7.5	7.8	> 30	> 30	> 30	> 30	> 30	> 30	4.64 ± 0.92	3.98	> 30	42.7	> 30	44.5	EC50 ([6]; EVA71, HeLa R19, read-out: EC50 Exp1): 1.68 µM; EC50 ([6]; EVA71, HeLa R19, read-out: EC50 Exp2): 2.1 µM; antiviral activity against CV-B3 (in words) [1]: showed antiviral activity; effect of the substitution on antiviral activity against CV-B3 (in words) [1]: decreased the antiviral activity to a larger extent; EC50 ([4]; HRVB14, HeLa R19, read-out: EC50 Exp1): 5.55 µM; EC50 ([4]; HRVB14, HeLa R19, read-out: EC50 Exp2): 3.72 µM; antiviral activity against CV-B3 in HAP1 cells (in words) [9]: showed antiviral activity; EC50 [9, 26]: 4.28 µM; EC50 [10]: > 100 µM; CC50 ([11]; human): 42.8 ± 1.75 µM; cytotoxicity (in words) ([11]; human, monkey): cytotoxicity in a similar range as the parental compound 1; CC50 ([12]; Exp2 CC50): > 30 µM; CC50 ([12]; Exp 2 CC50 HelaR19): 41 µM; CC50 ([13]; CC50 Hap1 Average): 48.7 µM; CC50 ([13]; Exp 1 CC50 Hap1): 48.4 µM; CC50 ([13]; Exp 2 CC50 Hap1): 49.1 µM; CC50 ([14]; CC50): 46.8 ± 1.48 µM; CC50 ([14]; CC50 BGM Average): 46.8 µM; CC50 ([14]; Exp 1 CC50 BGM): 45.4 µM; CC50 ([14]; Exp 2 CC50 BGM): 48.3 µM
COc1ccc(N(Cc2ccccc2)C(=O)c2ccco2)cc1 [Compound 19c, N-Benzyl-N-(4-methoxyphenyl)furan-2-carboxamide]	> 30	4.42 ± 0.36	4.07	4.32	3.82	4.41	4.06	4.77	> 30	> 30	8.94 ± 0.82	8.12	9.76	> 30	> 30	2.09	> 30	> 100	> 30	> 100	increase or decrease of antiviral activity against CV-B3 [1]: less than 3 fold; EC50 [9, 28]: 2.12 µM; EC50 [9, 26]: 2.15 µM; EC50 ([10]; read-out: EC50 BGM Average): 4.3 µM; EC50 ([10]; read-out: Exp 1 EC50 BGM): 3.95 µM; cytotoxicity (in words) [11]: did not show any cytotoxicity; CC50 ([12]; Exp2 CC50): > 30 µM; CC50 ([12]; Exp 2 CC50 HelaR19): > 100 µM; CC50 ([13]; CC50): > 100 µM; CC50 ([13]; CC50 Hap1 Average): > 100 µM; CC50 ([13]; Exp 1 CC50 Hap1): > 100 µM; CC50 ([13]; Exp 2 CC50 Hap1): > 100 µM; CC50 ([14]; CC50): > 100 µM; CC50 ([14]; CC50 BGM Average): > 100 µM; CC50 ([14]; Exp 1 CC50 BGM): > 100 µM; CC50 ([14]; Exp 2 CC50 BGM): > 100 µM
O=C(c1ccco1)N(Cc1ccccc1)c1ccc(C(F)(F)F)cc1 [Compound 19i, N-benzyl-N-(4-(trifluoromethyl)phenyl)furan-2-carboxamide]	> 30	2.75 ± 0.25	2.45	2.35	2.55	2.78	2.52	3.03	> 30	> 30	3.35 ± 0.19	3.16	3.54	> 30	> 30	2.03	> 30	68.5	> 30	68	effect of the substitution on antiviral activity against CV-B3 (in words) [1]: had little effect; EC50 ([9]; CVB3, HAP1): 1.75 ± 0.29 µM; EC50 [9, 28]: 1.74 µM; EC50 ([10]; read-out: EC50 BGM Average): 1.71 µM; EC50 ([10]; read-out: Exp 1 EC50 BGM): 1.42 µM; EC50 ([10]; read-out: Exp 2 EC50 BGM): 1.99 µM; cytotoxicity (in words) ([11]; human, monkey): cytotoxicity in a similar range as the parental compound 1; CC50 ([12]; Exp2 CC50): > 30 µM; CC50 ([12]; Exp 2 CC50 HelaR19): 69 µM; CC50 ([13]; CC50): > 100 µM; CC50 ([13]; CC50 Hap1 Average): > 100 µM; CC50 ([13]; Exp 1 CC50 Hap1): > 100 µM; CC50 ([13]; Exp 2 CC50 Hap1): > 100 µM; CC50 ([14]; CC50): 55.4 ± 0.05 µM; CC50 ([14]; CC50 BGM Average): 55.4 µM; CC50 ([14]; Exp 1 CC50 BGM): 55.3 µM; CC50 ([14]; Exp 2 CC50 BGM): 55.5 µM
